We go through 19 compounds from patent US20100298141A1, “SUBSTITUTED PYRIDINE N-OXIDE HERBICIDES” (E. I. DU PONT DE NEMOURS AND COMPANY, priority 2007, published 2010).

Structures are written as SMILES.

For this assay, the system named is Russian thistle. Briefly: Test C pre-/postemergence test. Type of assay: in vivo, Salsola kali. Particulars: for Plant response rating, Russian Thistle: scale 0 to 100 (0 no effect, 100 complete control). From the text:
Seeds of plant species selected from blackgrass (Alopecurus myosuroides), downy brome (Bromus tectorum), green foxtail (Setaria viridis), Italian ryegrass (Lolium multiflorum), wheat (Triticum aestivum), wild oat (Avena fatua), catchweed bedstraw (Galium aparine), Russian thistle (Salsola kali), […] (Cynodon dactylon), Surinam grass (Brachiaria decumbens), cocklebur (Xanthium strumarium), corn (Zea mays), crabgrass (Digitaria sanguinalis), woolly cupgrass (Eriochloa villosa), giant foxtail (Setaria faberii), Goosegrass (Eleusin indica), johnsongrass (Sorghum halepense), kochia (Kochia scoparia), lambsquarters (Chenopodium album), morningglory (Ipomoea coccinea), eastern black nightshade (Solanum ptycanthum), yellow nutsedge (Cyperus esculentus), pigweed (Amaranthus retroflexus), common ragweed (Ambrosia elation), soybean (Glycine max), common (oilseed) sunflower (Helianthus annuus), and velvetleaf (Abutilon theophrasti) were planted and treated preemergence with test chemicals formulated in a non-phytotoxic solvent mixture which included a surfactant. At the same time, plants selected from these crop and weed species and also winter barley (Hordeum vulgare), canarygrass (Phalaris minor), and chickweed (Stellaria media) were treated with postemergence applications of some of the test chemicals formulated in the same manner. Plants ranged in height from 2 to 18 cm (1- to 4-leaf stage) for postemergence treatments. […] At time of treatment, test pots were flooded to 3 cm above the soil surface, treated by application of test compounds directly to the paddy water, and then maintained at that water depth for the duration of the test. […] A dash (-) response means no test result.

Setting [1] is: 62 g ai/ha, Preemergence, scale 0 to 100.
Where [2] appears, read: 125 g ai/ha, preemergence, scale 0 (no effect) to 100 (complete control).
The mark [3] stands for this setting: preemergence, 250 g ai/ha, scale 0 (no effect) to 100 (complete control).

On to `Cn1nc(C(F)(F)F)c(C[S+]([O-])c2cc(C(F)(F)F)cc[n+]2[O-])c1Cl` (racemic) [Compound 34], for which the “Russian Thistle plant response rating” value under setting [1] amounted to 100. The “Plant response rating, Russian Thistle” value (Preemergence, 31 g ai/ha) is recorded as 70.

For the compound `Cn1nc(C(F)(F)F)c(C[S+]([O-])c2cc(Br)cc[n+]2[O-])c1Cl` (racemic) [Compound 35], the “Russian Thistle plant response rating” value worked out at 100 under setting [1], 100 under setting [2] and 100 under setting [3]. The “Plant response rating, Russian Thistle” value (Preemergence, 31 g ai/ha) amounted to 100.

Regarding `Cn1nc(C(F)(F)F)c(C(Cl)S(=O)(=O)c2cccc[n+]2[O-])c1OCC(F)(F)F` (racemic) [Compound 36], where the note is “Preemergence, 31 g ai/ha”, the “Plant response rating, Russian Thistle” value stood at 0. The “Russian Thistle plant response rating” value under setting [3] amounted to 60.

On to `Cn1nc(C(F)(F)F)c(C(Cl)S(=O)(=O)c2cccc[n+]2[O-])c1Cl` (centres unmarked) [Compound 12], for which the “Russian Thistle plant response rating” value came to 100 (31 g ai/ha, Preemergence, scale 0 to 100); 100 (62 g ai/ha, preemergence, scale 0 (no effect) to 100 (complete control)); 100 (preemergence, 125 g ai/ha, scale 0 (no effect) to 100 (complete control)). In addition, for the setting “Preemergence, 250 g ai/ha”, the “Plant response rating (0 to 100), Russian Thistle” value is 100.

Take `Cn1nc(C(F)(F)F)c(CS(=O)(=O)c2ccc(Cl)c[n+]2[O-])c1Cl` [Compound 18]: the “Russian Thistle plant response rating” value under setting [1] is listed as 30. The “Plant response rating, Russian Thistle” value (Preemergence, 31 g ai/ha) was found to be 0.

Turning to `Cn1nc(C(F)(F)F)c(CS(=O)(=O)c2cc(C(C)(C)C)cc[n+]2[O-])c1OC(F)F` [Compound 25], under setting [1], the “Russian Thistle plant response rating” value stood at 100. For the same compound, where the note is “Preemergence, 31 g ai/ha”, the “Plant response rating, Russian Thistle” value is reported as 100.

As to `CC(c1c(C(F)(F)F)nn(CC(F)(F)F)c1Cl)[S+]([O-])c1cccc[n+]1[O-]` (centres unmarked) [Compound 46], the “Russian Thistle plant response rating” value amounted to 0 under setting [1], 100 under setting [2] and 100 under setting [3].

`[O-][n+]1cc(Cl)ccc1[S+]([O-])Cc1c(C(F)(F)F)nn(CC(F)(F)F)c1Cl` (centres unmarked) [Compound 47]: the “Russian Thistle plant response rating” value under setting [2] was determined as 0 and the “Russian Thistle plant response rating” value under setting [3] stood at 100.

For the compound `Cn1nc(C(F)(F)F)c(C(Cl)S(=O)(=O)c2cccc[n+]2[O-])c1OC(F)F` (centres unmarked) [Compound 51], the “Russian Thistle plant response rating” value reads like this: under setting [1], 100; under setting [2], 100; under setting [3], 100. For the setting “Preemergence, 31 g ai/ha”, the “Plant response rating, Russian Thistle” value is recorded as 40.

Turning to `Cn1nc(C(F)(F)F)c(C[S+]([O-])c2ccc(F)c[n+]2[O-])c1Cl` (centres unmarked) [Compound 54], the “Russian Thistle plant response rating” value reads like this: under setting [1], 30; under setting [2], 100; under setting [3], 100. For the same compound, the “Plant response rating, Russian Thistle” value (Preemergence, 31 g ai/ha) was found to be 0.

For `Cn1nc(C(F)(F)F)c(C[S+]([O-])c2cccc[n+]2[O-])c1OCC(F)F` (centres unmarked) [Compound 75], the “Russian Thistle plant response rating” value by setting is: under setting [1], 100; under setting [2], 100; under setting [3], 100. Besides, the “Plant response rating, Russian Thistle” value (Preemergence, 31 g ai/ha) is reported as 100.

As for `C#CCOc1c(C[S+]([O-])c2cccc[n+]2[O-])c(C(F)(F)F)nn1C` (centres unmarked) [Compound 76], the “Russian Thistle plant response rating” value came to 100 under setting [1], 100 under setting [2] and 100 under setting [3]. Also, the “Plant response rating, Russian Thistle” value (Preemergence, 31 g ai/ha) turned out to be 0.

On to `Cn1nc(C(F)(F)C(F)(F)F)c(C[S+]([O-])c2ccc(Cl)c[n+]2[O-])c1OCC(F)(F)F` (centres unmarked) [Compound 92], for which the “Russian Thistle plant response rating” value by setting is: under setting [1], 100; under setting [2], 100; under setting [3], 100. Where the note is “Preemergence, 31 g ai/ha”, the “Plant response rating, Russian Thistle” value is on record as 100.

Regarding `Cc1cc[n+]([O-])c(S(=O)(=O)Cc2c(C(F)(F)F)nn(C)c2OCC(F)F)c1` [Compound 94], the “Russian Thistle plant response rating” value reads like this: under setting [1], 100; under setting [2], 100; under setting [3], 100. Besides, the “Plant response rating, Russian Thistle” value (Preemergence, 31 g ai/ha) turned out to be 100.

For the compound `Cc1cc[n+]([O-])c(S(=O)(=O)Cc2c(C(F)(F)F)nn(C)c2OC(C)C(F)(F)F)c1` (centres unmarked) [Compound 96], the “Russian Thistle plant response rating” value was 50 under setting [1], 80 under setting [2] and 100 under setting [3]. Under “Preemergence, 31 g ai/ha”, the “Plant response rating, Russian Thistle” value was 0.

In the case of `Cc1cc[n+]([O-])c(S(=O)(=O)Cc2c(C(F)(F)C(F)(F)F)nn(C)c2OCC(F)(F)F)c1` [Compound 99], the “Russian Thistle plant response rating” value reads like this: under setting [1], 100; under setting [2], 100; under setting [3], 100. Further, for the setting “Preemergence, 31 g ai/ha”, the “Plant response rating, Russian Thistle” value is reported as 100.

Take `CCc1cc[n+]([O-])c([S+]([O-])Cc2c(C(F)(F)F)nn(C)c2OC(F)F)c1` (centres unmarked) [Compound 101]: the “Russian Thistle plant response rating” value under setting [1] turned out to be 100, the “Russian Thistle plant response rating” value under setting [2] was determined as 100 and the “Russian Thistle plant response rating” value under setting [3] was 100. Moreover, the “Plant response rating, Russian Thistle” value (Preemergence, 31 g ai/ha) is 100.

Take `CCc1cc[n+]([O-])c(S(=O)(=O)Cc2c(C(F)(F)F)nn(C)c2OC(F)F)c1` [Compound 102]: the “Russian Thistle plant response rating” value stood at 100 under setting [1], 100 under setting [2] and 100 under setting [3]. For the same compound, for the setting “Preemergence, 31 g ai/ha”, the “Plant response rating, Russian Thistle” value was found to be 100.

Take `C#CCOc1c(CS(=O)(=O)c2cccc[n+]2[O-])c(C(F)(F)F)nn1C` [Compound 103]: the “Russian Thistle plant response rating” value under setting [1] is reported as 100, the “Russian Thistle plant response rating” value under setting [2] came out at 100 and the “Russian Thistle plant response rating” value under setting [3] was determined as 100. The “Plant response rating, Russian Thistle” value (Preemergence, 31 g ai/ha) is recorded as 100.
